Measured values published in patent publication US20190209501A1, “COMPOSITIONS AND METHODS OF USE OF BETA-HYDROXY-BETA-METHYLBUTYRATE (HMB) […] IN[…]” (Texas Tech University Office of Research Commercialization, priority 2018, published 2019).
Entries after “also recorded” stand apart in the source; their conditions may differ. Marks after values point to notes of the source that are not given here.

How the values were obtained:
[1] = Resistance training workout volume; type: in vivo, human; conditions: for LB Volume ES (d) / LS Session Volume ES (d) / UB Session Volume ES (d) / UB Volume ES (d): effect size; for LB Volume Δ / LB Volume Δ (%) / LS Session Volume Δ / LS Session Volume Δ (%) / UB Session Volume Δ / UB Session Volume Δ (%) / UB Volume Δ / UB Volume Δ (%): first to second 4 weeks
Source text: All groups completed 8 weeks of supervised RT in conjunction with the assigned dietary and supplementation programs. Training took place within the research laboratories under direct supervision. RT sessions were completed on 3 nonconsecutive days each week (i.e. Mondays, Wednesdays and Fridays), and upper- and lower-body sessions were alternated (Table 1).
Participants were instructed to train to momentary muscular exhaustion for each set, and the load was adjusted as necessary to ensure compliance with the specified repetition range. The weights and repetitions completed for each set of each exercise were recorded to allow for calculation of RT volume. Sessions took place between 12:00 and 18:00. […] Following each RT session, participants from each group were provided with 25 g whey protein (Elite 100% Whey, Dymatize Enterprises, LLC, Dallas, Tex. USA).

[2] = approximate; cited from earlier work
[3] = Reported side effects / adverse events; type: in vivo, human
[4] = Body composition, modified 4-component model (DXA + BIS), and body mass; type: in vivo, human; conditions: for FM (kg) Week 4 / FM (kg) Week 8: 4-component fat mass; for FFM (kg) Week 4 / FFM (kg) Week 8: 4-component fat-free mass; for BF % ES (d) / BM ES (d) / FFM ES (d) / FM ES (d): Cohen's d baseline vs week 8; for BM (kg) Week 4 / BM (kg) Week 8: body mass; for BF % Δ (%) / BM Δ (%) / FFM Δ (%) / FM Δ (%): change baseline to week 8 relative to baseline; for BM (kg) Δ / FFM (kg) Δ / FM (kg) Δ: week 8 minus baseline; for BF % Δ: week 8 minus baseline (absolute BF %)
Source text: At baseline and after 4 and 8 weeks of the intervention, participants completed two testing sessions: (1) a morning assessment conducted after an overnight fast for assessment of body composition, metabolism, vascular measures and subjective factors: and (2) an afternoon assessment of muscular performance, conducted in the non-fasted state. For morning assessments, participants reported to the laboratory after abstention from eating, drinking, exercising and utilizing caffeine or nicotine for ≥8 hours. Participants were interviewed to confirm adherence to these pre-assessment restrictions. The actual abstention from exercise was ≥14 hours due to the scheduling of exercise sessions. Participants reported to the laboratory wearing athletic clothing, and all metal and accessories were removed from the body prior to testing. Each participant voided her bladder and provided a urine sample. Urine samples were assessed for urine specific gravity (USG) using a digital refractometer (PA201X-093. Misco, Solon, Ohio. USA). Additionally, a standard urinary HCG test was performed to confirm that each participant was not pregnant. Finally, urinary samples were frozen at −80° C. for assessment of urinary HMB content after study unblinding. After voiding, each participant's body mass (BM) and height were determined via digital scale with stadiometer (Seca 769, Hamburg, Germany). Blood draws were performed at Texas Tech University Student Health Services after an overnight fast, and participants completed at-home saliva collections for assessment of the cortisol awakening response (CAR).
Body composition was assessed using a modified 4-component (4C) model (20, 21) produced from dual-energy x-ray absorptiometry (DXA) and bioimpedance spectroscopy (BIS) data. DXA scans were performed on a Lunar Prodigy scanner (General Electric, Boston, Mass., USA) with enCORE software (v. 16.2). The scanner was calibrated using a quality control block each morning prior to use, and positioning of participants was conducted according to manufacturer recommendations. Each participant was able to fit within the scanning dimensions. DXA bone mineral content (BMC) was divided by 0.9582 to yield an estimate of bone mineral (Mo) (22). Additionally, body volume (BV) was estimated from DXA lean soft tissue (LST), fat mass (FM) and BMC using the equation developed by Wilson et al. for General Electric DXA scanners (20):
BIS was utilized to obtain total body water (TBW) estimates. BIS utilizes Cole modeling (23) and mixture theories (24) to predict body fluids rather than regression equations used by other impedance methods (e.g. bioelectrical impedance analysis (25)). The BIS device used in the present study (SFB7, ImpediMed. Carlsbad, Calif., USA) employs 256 measurement frequencies ranging from 4 to 1,000 kHz. Each participant remained supine for ≥5 minutes immediately prior to assessment using the manufacturer-recommended hand-to-foot electrode arrangement. Duplicate assessments were performed, with the values averaged for analysis. Assessments were reviewed for quality assurance through visual inspection of Cole plots.
The 4C equation of Wang et al. was utilized for estimation of whole-body FM (26):
FFM was calculated as BM−FM, and BF % was calculated as (FM/BM)×100.

[5] = ITT analysis, week 4, mean ± SE
[6] = ITT analysis, week 8, mean ± SE

Structure (SMILES): CC(C)(O)CC(=O)O [TRFHMB, β-hydroxy-β-methylbutyrate]
- LB Volume ([1]; ITT, First 4 weeks): 50374 ± 4107 kg
- LS Session Volume ([1]; ITT, First 4 weeks): 8734 ± 659 kg
- UB Session Volume ([1]; ITT, First 4 weeks): 2722 ± 210 kg
- UB Volume ([1]; ITT, First 4 weeks): 15715 ± 1317 kg
- LB Volume ([1]; ITT, Second 4 weeks): 56873 ± 4655 kg
- LS Session Volume ([1]; ITT, Second 4 weeks): 10978 ± 902 kg
- UB Session Volume ([1]; ITT, Second 4 weeks): 3336 ± 215 kg
- UB Volume ([1]; ITT, Second 4 weeks): 17437 ± 1298 kg
- LB Volume ES (d) ([1]; ITT): 0.41
- LS Session Volume ES (d) ([1]; ITT): 0.79
- UB Session Volume ES (d) ([1]; ITT): 0.80
- UB Volume ES (d) ([1]; ITT): 0.37
- LB Volume Δ ([1]; ITT): 6499 kg
- LB Volume Δ (%) ([1]; ITT): 13%
- LS Session Volume Δ ([1]; ITT): 2244 kg
- LS Session Volume Δ (%) ([1]; ITT): 26%
- UB Session Volume Δ ([1]; ITT): 614 kg
- UB Session Volume Δ (%) ([1]; ITT): 23%
- UB Volume Δ ([1]; ITT): 1722 kg
- UB Volume Δ (%) ([1]; ITT): 11%
- LB Volume ([1]; PP, First 4 weeks): 54729 ± 5724 kg
- LS Session Volume ([1]; PP, First 4 weeks): 9434 ± 944 kg
- UB Session Volume ([1]; PP, First 4 weeks): 2869 ± 303 kg
- UB Volume ([1]; PP, First 4 weeks): 16696 ± 1851 kg
- LB Volume ([1]; PP, Second 4 weeks): 60345 ± 6263 kg
- LS Session Volume ([1]; PP, Second 4 weeks): 11915 ± 1281 kg
- UB Session Volume ([1]; PP, Second 4 weeks): 3463 ± 297 kg
- UB Volume ([1]; PP, Second 4 weeks): 17923 ± 1749 kg
- LB Volume ES (d) ([1]; PP): 0.34
- LS Session Volume ES (d) ([1]; PP): 0.83
- UB Session Volume ES (d) ([1]; PP): 0.75
- UB Volume ES (d) ([1]; PP): 0.26
- LB Volume Δ ([1]; PP): 5616 kg
- LB Volume Δ (%) ([1]; PP): 10%
- LS Session Volume Δ ([1]; PP): 2481 kg
- LS Session Volume Δ (%) ([1]; PP): 26%
- UB Session Volume Δ ([1]; PP): 594 kg
- UB Session Volume Δ (%) ([1]; PP): 21%
- UB Volume Δ ([1]; PP): 1227 kg
- UB Volume Δ (%) ([1]; PP): 7%
- Loss of HMB to urine after HMB is fed [2]: 20-50%
- Reported side effects at W4 ([3]; week 4, n=1 each): morning fatigue; also recorded: bloated stomach
- Reported side effects at W8 ([3]; week 8, n=1): bloated stomach
- Absolute effect size for BF % loss, TRFHMB relative to HMB only ([4]; 4 weeks): 2 fold
- BF % Week 4 ([4]; ITT analysis, 4-component body fat percentage, week 4, mean ± SE): 27.1 ± 1.7%
- BF % Week 8 ([4]; ITT analysis, 4-component body fat percentage, week 8, mean ± SE): 27.3 ± 1.6%
- FM (kg) Week 4 [4, 5]: 17.5 ± 1.5 kg
- FM (kg) Week 8 [4, 6]: 17.5 ± 1.5 kg
- FFM (kg) Week 4 [4, 5]: 46.5 ± 1.4 kg
- FFM (kg) Week 8 [4, 6]: 46.2 ± 1.3 kg
- BF % ES (d) ([4]; ITT analysis): −0.25
- BM ES (d) ([4]; ITT analysis): 0.08
- FFM ES (d) ([4]; ITT analysis): 0.26
- FM ES (d) ([4]; ITT analysis): −0.13
- BM (kg) Week 4 [4, 5]: 63.9 ± 2.2 kg
- BM (kg) Week 8 [4, 6]: 63.8 ± 2.1 kg
- BF % Δ (%) ([4]; ITT analysis): −5%
- BM Δ (%) ([4]; ITT analysis): 1%
- FFM Δ (%) ([4]; ITT analysis): 3%
- FM Δ (%) ([4]; ITT analysis): −4%
- BM (kg) Δ ([4]; ITT analysis): 0.6 kg
- FFM (kg) Δ ([4]; ITT analysis): 1.2 kg
- FM (kg) Δ ([4]; ITT analysis): -0.7 kg
- BF % Δ ([4]; ITT analysis): −1.4%
- Fat mass change versus baseline (in words) ([4]; PP analysis): significant reductions; also recorded: lower at W8 than baseline
- BF % Week 8 ([4]; PP analysis, 4-component body fat percentage, week 8, mean ± SE): 26.8 ± 2.6^b %
- FM (kg) Week 4 ([4]; PP analysis, week 4, mean ± SE): 17.5 ± 2.5 kg
- FM (kg) Week 8 ([4]; PP analysis, week 8, mean ± SE): 17.3 ± 2.3^b kg
- FFM (kg) Week 4 ([4]; PP analysis, week 4, mean ± SE): 46.8 ± 1.8 kg
- FFM (kg) Week 8 ([4]; PP analysis, week 8, mean ± SE): 46.4 ± 1.6 kg
- BF % ES (d) ([4]; PP analysis): −0.34
- BM ES (d) ([4]; PP analysis): 0.00
- FFM ES (d) ([4]; PP analysis): 0.32
- FM ES (d) ([4]; PP analysis): −0.23
- BM (kg) Week 4 ([4]; PP analysis, week 4 of TRF + 3 g/d HMB + RT, mean ± SE): 64.2 ± 3.1 kg
- BM (kg) Week 8 ([4]; PP analysis, week 8, mean ± SE): 63.7 ± 3.0 kg
- BF % Δ (%) ([4]; PP analysis): −8%
- BM Δ (%) ([4]; PP analysis): 0%
- FFM Δ (%) ([4]; PP analysis): 3%
- FM Δ (%) ([4]; PP analysis): −7%
- Reduction in BF % at W8 (significance) ([4]; PP analysis, week 8): statistically significant
- BM (kg) Δ ([4]; PP analysis): 0.0 kg
- FFM (kg) Δ ([4]; PP analysis): 1.4 kg
- FM (kg) Δ ([4]; PP analysis): -1.4 kg
- BF % Δ ([4]; PP analysis): −2.3%
- BF % 4-week effect size (d) ([4]; PP, TRF + 3 g/d Calcium-HMB + RT, n=7): −0.31
- BF % 4-week Δ-change ([4]; PP, TRF + 3 g/d Calcium-HMB + RT, n=7, baseline 29.1±2.5, p<0.05): −2.1%
